Results from patent publication US9896662B2, “Process for enhancing stem cell bioactivity using tauroursodeoxycholic acid” (Pusan National University Industry—University Cooperation …, priority 2014, dated 2018).

Assays:
[1] = system: leukocytes, lymphocytes, monocytes, and granulocytes in peripheral blood; assay: complete blood cell (CBC) count; type: in vivo; settings: oral, mice, 10 mg/kg for 3 days
Experimental: (§1) When TUDCA was orally administered, a variety of cell populations are mobilized to peripheral blood. After orally administering TUDCA to mice, the cell populations were analyzed by Hill's assay. As a result, it was confirmed that the number of angiogenic stem cells increased in TUDCA concentration and time-dependent manner (FIGS. 4a and 4b). In order to confirm side effects caused by mobilization of cell populations associated with immunity and inflammation, other than angiogenic stem cells, upon treatment with TUDCA, the change in the number of leukocytes, lymphocytes, monocytes, and granulocytes in peripheral blood was confirmed by complete blood cell (CBC) count. […] Also, it was confirmed that […] are EPCs by confirming the uptake of acetyl-LDL and FITC-isolectin B4 (FIG. 4d).

Akt = Akt activation in CD34+ HSC; type: cell-based
Excerpt: (§2) Meanwhile, in order to clarify the impact of TUDCA on CD34^+ HSC differentiation into the EPC lineage, the EPC colony forming capability of CD34^+ HSCs was examined. As a result, it was confirmed that the EPC colony forming capability was enhanced by TUDCA (FIG. 4e). Further, as Akt activation via PI3-kinase increases differentiation of CD34^+ HSCs into the EPC lineage, it was examined whether TUDCA activates Akt in CD34^+ HSC. As a result, it was confirmed that TUDCA increased Akt phosphorylation, and the exposure to LY294002, a PI3K inhibitor, inhibited TUDCA-mediated CD34^+ HSC differentiation into the EPC lineage (FIG. 4f).

hindlimb ischemic tissue [2] = assay: mouse hindlimb ischemia model, oral TUDCA; type: in vivo; settings: 20 mg/kg oral every day
Experimental: TUDCA was applied to mouse disease models based on the above experiments, to verify the effects. Mouse hindlimb ischemia model, which is one of the disease animals, for verifying vascular repair capability was prepared. Thereafter, 20 mg/kg of TUDCA was orally administered to mice every day, to confirm vascular repair capability over time. […] In order to confirm whether angiogenic stem cells were mobilized by TUDCA to hindlimb ischemic tissue, hindlimb ischemic tissue was removed 3 days after the preparation of the hindlimb ischemia models, and flow cytometry was performed using an angiogenic stem cell marker. As a result, it was confirmed that the number of angiogenic stem cells in ischemic tissue increased in the group to which TUDCA was orally administered (FIG. 7c). In order to confirm angiogenesis by TUDCA, hindlimb ischemic tissue was removed 14 days after the preparation of the hindlimb ischemia models and subjected to immunofluorescent staining, to verify capillary density and arteriole density.

[3] = system: angiogenic stem cells and cell populations in peripheral blood; assay: oral administration to healthy subjects: cell populations mobilized to peripheral blood; type: in vivo, human; settings: 5 mg/kg oral for 3 days
Experimental: Upon oral administration of TUDCA to healthy subjects, angiogenic stem cells and various cell populations, which were mobilized to peripheral blood, were confirmed and differentiation potential into functional endothelial progenitor cells was verified using peripheral blood. 5 mg/kg of TUDCA was orally administered to healthy subjects for 3 days, and the expression of angiogenic stem cell markers was examined.

[4] = system: CD34+ hematopoietic stem cells (HSCs); assay: trans-well assay of cell migration capability; type: cell-based; settings: TUDCA 0, 10, 50, 100 μM; concentration-dependent
Experimental: (§3) In order to confirm mobilization capability of angiogenic stem cells, which were dissociated from bone marrow stromal cells, to peripheral blood, CD34^+ hematopoietic stem cells (HSCs) were treated with various concentrations of TUDCA (0, 10, 50, 100 μM), to confirm the cell migration capability by trans-well assay. […] Based on the result, TUDCA (10 mg/kg) was orally administered to C57BL/6 mice, and the number of angiogenic stem cells (CD34^+/Sca1^+) in peripheral blood were analyzed by FACS analysis over time (at day 0, 1, 3).

CD34+ HSCs = assay: EPC colony forming capability of CD34+ HSCs (differentiation into the EPC lineage); type: cell-based
Excerpt: as §2

[5] = system: angiogenic stem cells in peripheral blood; assay: Hill's assay of cell populations mobilized to peripheral blood; type: in vivo; settings: oral, mice; concentration and time-dependent
Experimental: as §1

[6] = system: CD44, Jagged-1, N-cadherin, VLA5, CXCR4, c-kit, and Notch in EPCs; assay: mRNA expression levels of cell adhesion molecules in EPCs; type: cell-based
Excerpt: (§4) Further, as the first step of integration with vascular endothelial cells is cell adhesion, mRNA expression levels of cell adhesion molecules in HAECs and EPCs were examined.

[7] = system: senescent angiogenic stem cells; assay: nitric oxide and reactive oxygen species in senescent angiogenic stem cells; type: cell-based; settings: senescent angiogenic stem cells treated with TUDCA
[8] = system: CD44, N-cadherin, c-kit, and LFA1 in HAECs; assay: mRNA expression levels of cell adhesion molecules in HAECs; type: cell-based, Human
Excerpt: as §4

[9] = system: ICAM, Jagged1, N-cadherin, LFA1, and c-kit; assay: mRNA expression of cell adhesion factors in CD34+ cells; type: cell-based; settings: TUDCA 50 μM for 5 hours
Experimental: Based thereon, a change in mRNA expression of cell adhesion factors involved in cell adhesion was confirmed. After treating CD34^+ cells with TUDCA (50 μM) for 5 hours, mRNA expression of ICAM, Jagged′, N-cadherin, LFA1, and c-kit, which are involved in cell adhesion, was confirmed.

[10] = system: angiogenic stem cells (CD34+/Sca1+) in peripheral blood; assay: FACS analysis of angiogenic stem cells in peripheral blood after oral administration; type: in vivo; settings: 10 mg/kg oral, C57BL/6 mice, day 0, 1, 3
Experimental: as §3

angiogenic stem cells [11] = assay: infiltration capability of angiogenic stem cells; type: cell-based; settings: 50 μM of TUDCA
Experimental: (§5) In order to confirm that the treatment with TUDCA involves enhancement of biological activity functions of angiogenic stem cells in addition to enhancement of mobilization and migration capabilities of angiogenic stem cells from bone marrow to peripheral blood and ischemic tissue, angiogenic stem cells were treated with different concentrations (0, 10, 50, 100 μM) of TUDCA. Then, various biological activity functions were evaluated. […] In order to confirm vascular differentiation potential, tube-forming capability was examined.

[12] = system: senescent angiogenic stem cells (passages 13 to 16); assay: β-galactosidase staining of senescent angiogenic stem cells; type: cell-based
Experimental: In order to use stem cells as a stem cell therapy product, it is important to obtain a sufficient number of stem cells in a healthy state. However, upon in vitro expansion of stem cells for obtaining a sufficient number of stem cells, repeated passages cause senescence of stem cells. In order to resolve this problem, angiogenic stem cells subjected to repeated passages (passages 13 to 16) were treated with TUDCA, to verify senescence inhibition. Senescent angiogenic stem cells were treated with TUDCA and subjected to β-galactosidase staining capable of confirming senescence, to confirm senescence recovery.

angiogenic stem cells [13] = assay: proliferation capability of angiogenic stem cells; type: cell-based; settings: 50 μM of TUDCA (tested 0, 10, 50, 100 μM)
Experimental: as §5

[14] = system: CD34+ cells on bone marrow stromal cells; assay: adhesion and dissociation of CD34+ cells on bone marrow stromal cells (fluorescence microscope count); type: cell-based; settings: TUDCA 50, 100 μM, incubated 1 hour, compared with the control
Experimental: When ischemic damage occurs, for vascular repair, a process in which angiogenic stem cells integrated with bone marrow stromal cells are dissociated from bone marrow and transported to ischemic tissue first occurs in the vascular repair mechanism. In order to confirm a change in dissociation of angiogenic stem cells from bone marrow stromal cells by TUDCA, CD34^+ cells stained with CM-DiI (staining red), which were treated with TUDCA (0, 50, 100 μM), were incubated for 1 hour on glass slides in which bone marrow stromal cells were seeded. The number of CD34^+ cells adhered to or dissociated from bone marrow stromal cells was counted by a fluorescence microscope (FIGS. 1a, 1b, and 1c). AMD3100, a CXCR4 antagonist, was used as a positive control.

hindlimb ischemic tissue [15] = assay: hindlimb ischemia model in GFP bone marrow-transplanted mice, oral TUDCA; type: in vivo, GFP-BMT mice (C57BL/6); settings: 20 mg/kg oral, GFP-BMT mice
Excerpt: It is known that angiogenic stem cells are mainly present in bone marrow, but they are present in different tissues than bone marrow. In order to confirm whether angiogenic stem cells are derived from bone marrow by TUDCA and involved in vascular repair mechanism, bone marrow was isolated from green fluorescent protein (GFP) mice and transplanted into C57BL/6. Once bone marrow transplantation (BMT) mice are thus prepared, chimeric mice which show green fluorescence only for bone marrow cells are obtained. After preparing hindlimb ischemia animal models using GFP-BMT mice, TUDCA (20 mg/kg) was orally administered to verify vascular repair capability. […] In order to confirm angiogenesis by TUDCA, hindlimb ischemic tissue was removed 14 days after the preparation of the hindlimb ischemia models and subjected to immunofluorescent staining, to verify capillary and arteriole density. […] In order to confirm whether angiogenic stem cells were mobilized by TUDCA from bone marrow to hindlimb ischemic tissue, mobilization capability of angiogenic stem cells was examined by immunofluorescent staining using a bone marrow marker GFP, an angiogenic stem cell marker c-kit, a vascular marker ILB4, into which hindlimb ischemic tissue removed from the hindlimb ischemia models was transplanted 3 days after the preparation. […] In order to examine whether angiogenic stem cells mobilized by TUDCA from bone marrow differentiate into new blood vessels in hindlimb ischemic tissue, vascular differentiation potential of angiogenic stem cells was examined, through immunofluorescent staining and morphological analysis, using a bone marrow marker GFP, a marker of vascular differentiation VEGFR, a vascular marker ILB4, into which hindlimb ischemic tissue removed from the hindlimb ischemia models was transplanted 14 days after the preparation.

angiogenic stem cells [16] = assay: tube-forming capability of angiogenic stem cells; type: cell-based; settings: TUDCA 0, 10, 50, 100 μM; concentration-dependent
Experimental: as §5

[17] = system: Human arterial endothelial cells (HAECs) mixed with angiogenic stem cells; assay: tube formation assay of HAECs mixed with angiogenic stem cells; type: cell-based; settings: TUDCA 50 μM
Excerpt: It is the most significant process in the vascular recovery mechanism that angiogenic stem cells mobilized from bone marrow are integrated with vascular endothelial cells preexisting in damaged tissue, to generate new blood vessels through interaction. Human arterial endothelial cells (HAECs) were mixed with angiogenic stem cells, and then the integration capability between the two cells was examined by tube formation assay.

[18] = day 14, immunofluorescent staining

C[C@H](CCC(=O)NCCS(=O)(=O)O)[C@H]1CC[C@H]2[C@@H]3[C@@H](O)C[C@@H]4C[C@H](O)CC[C@]4(C)[C@H]3CC[C@]12C [TUDCA, tauroursodeoxycholic acid]
number of granulocytes involved in inflammatory response [1]: significantly decreased
Akt phosphorylation (Akt): increased
blood flow improvement (LDPI assay) (hindlimb ischemic tissue [2]): significantly increased
number of angiogenic stem cells in ischemic tissue (flow cytometry) (hindlimb ischemic tissue [2]; day 3): increased
number of arterioles (hindlimb ischemic tissue [2]; [18]): significantly increased
number of capillaries (hindlimb ischemic tissue [2]; [18]): significantly increased
colony forming capability (EPC-CFA) [3]: significantly increased
distribution of granulocytes involved in inflammatory response [3]: significantly decreased
expression of angiogenic stem cell markers CD34, CD31, and c-kit [3]: significantly increased
migration capability of CD34+ cells [4]: significantly increased
EPC colony forming capability of CD34+ HSCs (CD34+ HSCs): enhanced
number of angiogenic stem cells (Hill's assay) [5]: increased
mRNA expression levels of CD44, Jagged-1, N-cadherin, VLA5, CXCR4, c-kit, and Notch [6]: significantly increased
expression amount of nitric oxide [7]: significantly increased
expression amount of reactive oxygen species [7]: significantly decreased
mRNA expression levels of CD44, N-cadherin, c-kit, and LFA1 [8]: significantly increased
mRNA expression of cell adhesion factors (ICAM, Jagged1, N-cadherin, LFA1, c-kit) [9]: significantly decreased
number of angiogenic stem cells (CD34+/Sca1+) in peripheral blood [10]: significantly increased
infiltration capability of angiogenic stem cells (angiogenic stem cells [11]): most significantly increased
number of β-galactosidase positive cells [12]: significantly increased
proliferation capability of angiogenic stem cells (angiogenic stem cells [13]): most significantly increased
number of CD34+ cells adhered to the stromal cells [14]: significantly decreased
number of CD34+ cells dissociated from the stromal cells [14]: significantly increased
blood flow (LDPI assay) (hindlimb ischemic tissue [15]): significantly improved
number of angiogenic stem cells derived from bone marrow into ischemic tissue (hindlimb ischemic tissue [15]; day 3, GFP/c-kit/ILB4 staining): significantly increased
number of arterioles (hindlimb ischemic tissue [15]; day 14): significantly increased
number of capillaries (hindlimb ischemic tissue [15]; day 14): significantly increased
number of bone marrow-derived angiogenic stem cells differentiated into vascular endothelial cells (hindlimb ischemic tissue [15]; day 14, GFP/VEGFR/ILB4 staining): significantly increased
tube-forming capability of angiogenic stem cells (angiogenic stem cells [16]): significantly increased
tube formation capability [17]: significantly increased
